Legend:
Assay in all cases: relative viability (nuclei count vs DMSO), 5 days (fraction); higher = more cells survive
IPA-3 + Bortezomib = compound: C1=CC=C2C(=C1)C=CC(=C2SSC3=C(C=CC4=CC=CC=C43)O)O [IPA-3] + CC(C)C[C@H](NC(=O)[C@H](Cc1ccccc1)NC(=O)c1cnccn1)B(O)O [Bortezomib] (partner 0.002 µM)
Procedure, shortened: (§1)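 Lung cancer cell lines, seeded in 1536-well plates, were treated the following day by pin tool with a single drug or with five library-drug doses (not always all listed) in √10 steps on top of a fixed anchor-drug dose. Cells were fixed and nuclei stained in one step after 5 days, and nuclei were counted. Relative viability is the nuclei count for treated wells divided by that for vehicle wells, reported as medians of duplicate plates.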

IPA-3 + Pictilisib = compound: C1=CC=C2C(=C1)C=CC(=C2SSC3=C(C=CC4=CC=CC=C43)O)O [IPA-3] + CS(=O)(=O)N1CCN(Cc2cc3nc(-c4cccc5[nH]ncc45)nc(N4CCOCC4)c3s2)CC1 [Pictilisib] (partner 1 µM)
Procedure, shortened: as §1

IPA-3 + Luminespib = compound: C1=CC=C2C(=C1)C=CC(=C2SSC3=C(C=CC4=CC=CC=C43)O)O [IPA-3] + CCNC(=O)c1noc(-c2cc(C(C)C)c(O)cc2O)c1-c1ccc(CN2CCOCC2)cc1 [Luminespib] (partner 0.01 µM)
Procedure, shortened: as §1

RAF265 + Trametinib = compound: Cn1c(Nc2ccc(C(F)(F)F)cc2)nc2cc(Oc3ccnc(-c4ncc(C(F)(F)F)[nH]4)c3)ccc21 [RAF265] + CC(=O)Nc1cccc(-n2c(=O)n(C3CC3)c(=O)c3c(Nc4ccc(I)cc4F)n(C)c(=O)c(C)c32)c1 [Trametinib] (partner 0.02 µM)
Procedure, shortened: as §1

Row | Cell Line | relative viability (IPA-3 + Bortezomib; first compound 0.2 µM) | relative viability (IPA-3 + Bortezomib; first compound 0.6325 µM) | relative viability (IPA-3 + Bortezomib; first compound 2 µM) | relative viability (IPA-3 + Bortezomib; first compound 6.325 µM) | relative viability (IPA-3 + Bortezomib; first compound 20 µM) | relative viability (IPA-3 + Pictilisib; first compound 0.2 µM) | relative viability (IPA-3 + Pictilisib; first compound 0.6325 µM) | relative viability (IPA-3 + Pictilisib; first compound 2 µM) | relative viability (IPA-3 + Pictilisib; first compound 6.325 µM) | relative viability (IPA-3 + Pictilisib; first compound 20 µM) | relative viability (IPA-3 + Luminespib; first compound 0.2 µM) | relative viability (IPA-3 + Luminespib; first compound 0.6325 µM) | relative viability (IPA-3 + Luminespib; first compound 2 µM) | relative viability (IPA-3 + Luminespib; first compound 6.325 µM) | relative viability (IPA-3 + Luminespib; first compound 20 µM) | relative viability (RAF265 + Trametinib; first compound 0.01 µM) | relative viability (RAF265 + Trametinib; first compound 0.03162 µM) | relative viability (RAF265 + Trametinib; first compound 0.1 µM) | relative viability (RAF265 + Trametinib; first compound 0.3162 µM) | relative viability (RAF265 + Trametinib; first compound 1 µM)
1 | H3255 | 0.818 | 0.709 | 0.601 | 0.754 | 0.846 | 0.454 | 0.465 | 0.44 | 0.573 | 0.558 | 1.03 | 0.757 | 0.782 | 0.871 | 0.889 | 0.719 | 0.585 | 0.657 | 0.271 | 0.458
2 | NCI-H1792 | 1.1 | 0.928 | 1.08 | 0.895 | 1.16 | 0.258 | 0.285 | 0.25 | 0.272 | 0.325 | 0.475 | 0.529 | 0.418 | 0.38 | 0.615 | 0.485 | 0.408 | 0.361 | 0.218 | 0.0679
3 | NCI-H596 | 1.33 | 1.12 | 1.18 | 0.914 | 1.17 | 0.41 | 0.412 | 0.409 | 0.401 | 0.45 | 1.17 | 0.955 | 1.04 | 0.637 | 0.662 | 0.836 | 0.75 | 0.813 | 0.826 | 0.638
4 | NCI-H2087 | 1.04 | 0.796 | 0.828 | 0.749 | 0.838 | 0.891 | 0.784 | 0.894 | 0.936 | 1.01 | 0.169 | 0.14 | 0.183 | 0.197 | 0.167 | 0.195 | 0.148 | 0.154 | 0.161 | 0.129
5 | NCI-H661 | 0.972 | 0.779 | 0.915 | 0.967 | 0.897 | 0.409 | 0.458 | 0.472 | 0.547 | 0.418 | 0.911 | 0.874 | 0.919 | 0.866 | 0.921 | 0.596 | 0.484 | 0.371 | 0.332 | 0.339
6 | EMC-BAC-2 | 1.16 | 1.11 | 1.04 | 1.04 | 1.22 | 0.552 | 0.53 | 0.531 | 0.529 | 0.636 | 1.13 | 1.04 | 1.2 | 1.2 | 1.21 | 0.977 | 0.857 | 0.85 | 0.62 | 0.313
7 | NCI-H1355 | 1.44 | 1.25 | 1.18 | 1.16 | 1.3 | 0.396 | 0.396 | 0.466 | 0.484 | 0.401 | 0.889 | 0.677 | 0.719 | 0.702 | 0.757 | 0.438 | 0.355 | 0.383 | 0.283 | 0.206
8 | NCI-H23 | 1.39 | 0.964 | 1.08 | 1.06 | 0.797 | 0.672 | 0.531 | 0.473 | 0.509 | 0.611 | 0.221 | 0.224 | 0.201 | 0.227 | 0.204 | 0.404 | 0.262 | 0.239 | 0.239 | 0.17
9 | NCI-H1651 | 1.02 | 0.912 | 0.998 | 1.04 | 1.06 | 0.649 | – | 0.581 | 0.659 | 0.799 | 1.04 | 0.768 | 0.853 | 0.959 | 1.02 | 0.797 | 0.808 | 0.795 | 0.796 | 0.734
10 | NCI-H1975 | 0.373 | 0.375 | 0.387 | 0.421 | 0.481 | 0.342 | 0.284 | 0.316 | 0.321 | 0.259 | 0.236 | 0.189 | 0.213 | 0.19 | 0.365 | 0.422 | 0.286 | 0.22 | 0.173 | 0.191
11 | COR-L23 | 1.12 | 0.946 | 1.06 | 0.939 | 0.802 | 1.01 | 0.75 | 0.764 | 0.615 | 0.72 | 0.866 | 0.627 | 0.725 | 0.643 | 0.48 | 0.684 | 0.444 | 0.331 | 0.247 | 0.207
12 | HCC-44 | 0.918 | 0.852 | 0.897 | 0.894 | 0.835 | 0.605 | 1.49 | 0.53 | 1.04 | 0.63 | 1.12 | 0.995 | 1.21 | 0.947 | 1.25 | 0.938 | 1.02 | 1.08 | 1.01 | 0.966
13 | LOU-NH91 | 0.493 | 0.479 | 0.498 | 0.478 | 0.597 | 0.505 | 0.501 | 0.567 | 0.523 | 0.57 | 0.326 | 0.26 | 0.332 | 0.33 | 0.358 | 0.837 | 0.756 | 0.717 | 0.71 | 0.636
14 | NCI-H441 | 0.446 | – | 0.285 | 0.734 | 0.589 | 0.479 | 0.457 | 0.41 | 0.462 | 0.427 | 0.401 | 0.29 | 0.407 | 0.324 | 0.422 | 0.598 | 0.504 | 0.461 | 0.436 | 0.457
15 | NCI-H647 | 1.77 | 0.939 | 0.654 | 0.614 | 0.121 | 0.44 | 0.351 | 0.363 | 0.434 | 0.471 | 0.192 | 0.148 | 0.176 | 0.142 | 0.102 | 0.46 | 0.451 | 0.277 | 0.222 | 0.19
16 | NCI-H1915 | 1.15 | 0.974 | 0.952 | 0.971 | 1.09 | 0.956 | 0.987 | 0.903 | 0.966 | 0.933 | 0.968 | 0.534 | 0.775 | 0.713 | 0.926 | 0.327 | 0.275 | 0.23 | 0.151 | 0.1
